Experimental data reported in PubChem BioAssay AID1963964 (Molecular Pharmacology Branch, DTP, NCI, 2024).

System: 997726-040-R-J2-PDC tumor spheroids, viability
Assay: Anticancer human tumor 997726-040-R-J2-PDC patient-derived squamous cell lung carcinoma cell line growth inhibition [PI3K]
Details: spheroids with HUVEC and MSC; for IC50: curve of first compound; for viability, T/C: stronger effect = lower value; active = viability on the fitted dose curve at most 10% of control; inactive = the rest
Description: Combinatorial screen of targeted agents with the PI3K inhibitors inavolisib, alpelisib, duvelisib, and copanlisib in multi-cell type tumor spheroids
A high-throughput screen of multi-cell type tumor spheroids was designed to identify active combinations of targeted small molecules and PI3K pathway inhibitors. Complex spheroids include a stromal component modeled by human endothelial cells (HUVEC) and fibroblasts modeled by human mesenchymal stem cells (MSCs). The concentration ranges selected for each drug and investigational agent were based upon clinically achievable concentrations if the clinical Cmax of the agent was known.
Compounds. The drugs and investigational agents: inavolisib (NSC800729), alpelisib (NSC765974), duvelisib (NSC772469), copanlisib (NSC816437), ipatasertib (NSC767898), afuresertib (NSC778305), talazoparib (NSC767125), sapanisertib (NSC764658), selumetinib (NSC741078), tovorafenib (DAY101, NSC766906), vemurafenib (NSC761431), ravoxertinib (NSC781343), sotorasib (NSC818433), MRTX1133 (NSC 836407), abemaciclib (NSC 768073), palbociclib (NSC758247), venetoclax (NSC 766270), SY5609 (NSC837396), enzalutamide (NSC755605), and darolutamide (NSC825331), were obtained from the National Cancer Institute (NCI) Developmental Therapeutics Program Chemical Repository. The FDA-approved anticancer drug set is available from the NCI Developmental Therapeutics Program. […] The stock solutions were prepared in dimethyl sulfoxide (DMSO, Sigma-Aldrich, St. Louis, MO, cat. D2650) at 800-fold the tested concentration and stored at -70 degrees C prior to their use. All drugs and investigational agents were tested over a range starting from a high concentration at or near the clinical Cmax and decreasing in half-log increments. If the clinical Cmax for an agent had not been determined, the highest concentration tested was 10 microM.
Cell Culture. All cells were maintained in an incubator at 37 degrees C and 5% CO2 with 95% humidity. The PDC lines were cultured according to standard operating procedures established by the NCI PDMR (https://pdmr.cancer.gov/sops/default.htm). All PDCs were thawed and cultured in Matrigel-coated flasks prepared with a working solution of 1X Ham's F-12 nutrient mix, without supplementation (Invitrogen, Waltham, MA, cat. 11765054), 100 U/mL penicillin-streptomycin (Invitrogen, cat. 15140122), and 2.5% Matrigel (Corning Inc., Corning, NY, cat. 354248) for the first three passages. The 354836-022-R-J1-PDC, 475296-252-R-J1-PDC, and 997726-040-R-J2-PDC lines were cultured in 6A media, which includes advanced DMEM/F-12 (Thermo Fisher Scientific, cat. 12634028), 10 mM HEPES (Thermo Fisher Scientific, cat. 15630080), 1X GlutaMAX supplement (Thermo Fisher Scientific, cat. 35050061), 0.1 mg/mL primocin (InvivoGen, San Diego, CA, cat. ant-pm-2), 10% defined fetal bovine serum, heat inactivated (HyClone Laboratories Inc., Logan, UT, cat. SH30070.03HI), 50% L-WRN conditioned media (ATCC, cat. CRL-3276), 1.25 mM N-Acetyl-L-cysteine (Sigma-Aldrich, cat. A9165), 10 mM nicotinamide (Sigma-Aldrich, cat. N0636), 1X B-27 supplement (Thermo Fisher Scientific, cat. 17504044), 1X N-2 supplement (Thermo Fisher Scientific, cat. 17502048), and 10 microM Y-27632 dihydrochloride (Tocris Bioscience, Bristol, United Kingdom, cat. 1254). The 624824-186-R-J2-PDC line was cultured in 6C/Colon 1B media, which includes all 6A media components plus 50 ng/mL human EGF recombinant protein (Thermo Fisher Scientific, cat. PHG0311). […]

[1] = second compound 0.00316 µM, first compound 0.0316 µM
[2] = second compound 0.00316 µM, first compound 0.1 µM
[3] = second compound 0.01 µM, first compound 0.0316 µM
[4] = second compound 0.01 µM, first compound 0.1 µM
[5] = second compound 0.0316 µM, first compound 0.0316 µM
[6] = second compound 0.0316 µM, first compound 0.1 µM
[7] = second compound 0.1 µM, first compound 0.0316 µM
[8] = second compound 0.1 µM, first compound 0.1 µM
[9] = second compound 0.316 µM, first compound 0.0316 µM
[10] = second compound 0.316 µM, first compound 0.1 µM
[11] = second compound 1 µM, first compound 0.0316 µM
[12] = second compound 1 µM, first compound 0.1 µM
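Note: spheroids exposed to compounds for seven days before readout.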

CC(=O)c1c(C)c2cnc(Nc3ccc(N4CCNCC4)cn3)nc2n(C2CCCC2)c1=O + CC(Nc1ccc2c(c1)OCCn1cc(N3C(=O)OCC3C(F)F)nc1-2)C(N)=O
inactive: viability, T/C (second compound 0.00316 µM, first compound 0.000316 µM) 94.9% | viability, T/C (second compound 0.00316 µM, first compound 0.001 µM) 84.1% | viability, T/C (second compound 0.00316 µM, first compound 0.00316 µM) 83.1% | viability, T/C (second compound 0.00316 µM, first compound 0.01 µM) 81.9% | viability, T/C [1] 84.9% | viability, T/C [2] 55.8% | viability, T/C (second compound 0.01 µM, first compound 0.000316 µM) 84.7% | viability, T/C (second compound 0.01 µM, first compound 0.001 µM) 80.7% | viability, T/C (second compound 0.01 µM, first compound 0.00316 µM) 74.1% | viability, T/C (second compound 0.01 µM, first compound 0.01 µM) 76.4% | viability, T/C [3] 65.8% | viability, T/C [4] 53.9% | viability, T/C (second compound 0.0316 µM, first compound 0.000316 µM) 62% | viability, T/C (second compound 0.0316 µM, first compound 0.001 µM) 62.1% | viability, T/C (second compound 0.0316 µM, first compound 0.00316 µM) 63.9% | viability, T/C (second compound 0.0316 µM, first compound 0.01 µM) 53.9% | viability, T/C [5] 52.5% | viability, T/C [6] 45% | viability, T/C (second compound 0.1 µM, first compound 0.000316 µM) 43.5% | viability, T/C (second compound 0.1 µM, first compound 0.001 µM) 45.4% | viability, T/C (second compound 0.1 µM, first compound 0.00316 µM) 46.5% | viability, T/C (second compound 0.1 µM, first compound 0.01 µM) 48.9% | viability, T/C [7] 40.5% | viability, T/C [8] 29.5% | viability, T/C (second compound 0.316 µM, first compound 0.000316 µM) 38.4% | viability, T/C (second compound 0.316 µM, first compound 0.001 µM) 32.7% | viability, T/C (second compound 0.316 µM, first compound 0.00316 µM) 39.3% | viability, T/C (second compound 0.316 µM, first compound 0.01 µM) 30.1% | viability, T/C [9] 24.4% | viability, T/C [10] 22.9% | viability, T/C (second compound 1 µM, first compound 0.000316 µM) 26.3% | viability, T/C (second compound 1 µM, first compound 0.001 µM) 33.2% | viability, T/C (second compound 1 µM, first compound 0.00316 µM) 27.5% | viability, T/C (second compound 1 µM, first compound 0.01 µM) 28.1% | viability, T/C [11] 22.2% | viability, T/C [12] 15.3%
44.5 nM: IC50 (second compound 0.0316 µM)
< 0.316 nM: IC50 (second compound 0.1 µM) | IC50 (second compound 0.316 µM) | IC50 (second compound 1 µM)
> 100 nM: IC50 (second compound 0.00316 µM) | IC50 (second compound 0.01 µM)

CNC(=O)c1ccc(N2C(=S)N(c3ccc(C#N)c(C(F)(F)F)c3)C(=O)C2(C)C)cc1F + CC(Nc1ccc2c(c1)OCCn1cc(N3C(=O)OCC3C(F)F)nc1-2)C(N)=O
inactive: viability, T/C [1] 82.6% | viability, T/C [2] 86.7% | viability, T/C (second compound 0.00316 µM, first compound 0.316 µM) 89% | viability, T/C (second compound 0.00316 µM, first compound 1 µM) 88.2% | viability, T/C (second compound 0.00316 µM, first compound 3.16 µM) 94.8% | viability, T/C (second compound 0.00316 µM, first compound 10 µM) 83.5% | viability, T/C [3] 74.9% | viability, T/C [4] 71.5% | viability, T/C (second compound 0.01 µM, first compound 0.316 µM) 79.6% | viability, T/C (second compound 0.01 µM, first compound 1 µM) 72.8% | viability, T/C (second compound 0.01 µM, first compound 3.16 µM) 78.8% | viability, T/C (second compound 0.01 µM, first compound 10 µM) 72.3% | viability, T/C [5] 59.5% | viability, T/C [6] 68.3% | viability, T/C (second compound 0.0316 µM, first compound 0.316 µM) 61% | viability, T/C (second compound 0.0316 µM, first compound 1 µM) 61.4% | viability, T/C (second compound 0.0316 µM, first compound 3.16 µM) 67.2% | viability, T/C (second compound 0.0316 µM, first compound 10 µM) 57.4% | viability, T/C [7] 50.2% | viability, T/C [8] 45.5% | viability, T/C (second compound 0.1 µM, first compound 0.316 µM) 45.1% | viability, T/C (second compound 0.1 µM, first compound 1 µM) 44.3% | viability, T/C (second compound 0.1 µM, first compound 3.16 µM) 42.4% | viability, T/C (second compound 0.1 µM, first compound 10 µM) 40.3% | viability, T/C [9] 34.6% | viability, T/C [10] 32.5% | viability, T/C (second compound 0.316 µM, first compound 0.316 µM) 31.8% | viability, T/C (second compound 0.316 µM, first compound 1 µM) 33% | viability, T/C (second compound 0.316 µM, first compound 3.16 µM) 28.9% | viability, T/C (second compound 0.316 µM, first compound 10 µM) 28.6% | viability, T/C [11] 34.3% | viability, T/C [12] 27.8% | viability, T/C (second compound 1 µM, first compound 0.316 µM) 26.7% | viability, T/C (second compound 1 µM, first compound 1 µM) 29.6% | viability, T/C (second compound 1 µM, first compound 3.16 µM) 21.4% | viability, T/C (second compound 1 µM, first compound 10 µM) 24.2%
> 10000 nM: IC50 (second compound 0.00316 µM) | IC50 (second compound 0.01 µM) | IC50 (second compound 0.0316 µM)
< 31.6 nM: IC50 (second compound 0.1 µM) | IC50 (second compound 0.316 µM) | IC50 (second compound 1 µM)
